{
  "source": "patent US5496703A",
  "about": "“Indirect immunoassay for dioxinlike compounds” (priority 1993, dated 1996)",
  "key": {"[1]": {"tested_on": "cytochrome P-450IA1", "assay": "Ethoxyresorufin O-deethylase assay (EROD), X3 cells", "format": "cell-based, human", "settings": "16 hours", "experimental": "The X3 human lymphoblastoma cells (Genetest, Wolburn, Mass.) were grown in 75 cm^2 T-flasks in RPMI 1640 medium (Gibco) containing 9% horse serum. Any cell or cell line expressing cytochrome P-450IA1 may be used. The cells were cultured at 37° C. in a 5% CO2 (balance air) environment. Cells were subcultured by centrifuging (1000 rpm, 3 minutes) and resuspended in fresh media to a volume of 50 mL (at a cell density of 1.0×10^6 cells/mL). The TCDD-corn oil solution was homogenized with serum to a final concentration of 0.10 μg/mL. The TCDD-serum was added at concentrations of 0, 0.02, 0.05, 0.1, 0.5 and 1.0 nM per flask and incubated for 16 hours. […] A final cell count was then determined.\nResorufin (hydroxyphenoxazone) and ethoxyresorufin were purchased from Molecular Probes (Junction City, Oreg.). EROD was measured by following the increase in fluorescence due to the formation of resorufin by dealkylation of its ethoxy derivative. […] A baseline of fluorescence was recorded at an excitation wavelength of 530 nm and an emission wavelength of 585 nm. The reaction was started with the addition of NADPH and the dealkylation of the derivative to resorufin was followed by a progressive increase in fluorescence as resorufin was generated. Recordings were standardized by measuring the fluorescence of freshly generated resorufin from resorufin acetate (Sigma, St. Louis, Mo.) prior to each assay. […]"}, "[2]": {"tested_on": "C57BL/6J mouse strain", "settings": "cited from earlier work"}, "[3]": {"tested_on": "AHH and delta-ALA (delta-aminolaevulinic acid) synthetase", "settings": "versus other inducers, such as 3-methyl-cholanthrene; cited from earlier work"}, "[4]": {"target": "Ah receptor", "settings": "cited from earlier work"}, "[5]": {"tested_on": "hepatic Ah receptor", "settings": "room temperature, ligand concentration 10^-9 M; cited from earlier work"}, "[6]": {"tested_on": "EGF receptor", "settings": "cited from earlier work"}, "[7]": {"settings": "single human; cited from earlier work"}},
  "note": "Values joined by “and” are separate entries in the source; they are usually repeats but may differ in a detail not shown here. Equal values may be shown once.",
  "data": [
    {"smiles": "Clc1cc2c(cc1Cl)Oc1cc(Cl)c(Cl)cc1O2", "note": "[TCDD, 2,3,7,8-tetrachlorodibenzo-p-dioxin]", "values": [
      {"measurement": "concentration of maximal EROD activity", "setting": "[1]", "value": "2 nM and 1 nM"},
      {"measurement": "EC50", "setting": "[1]; probit model", "value": 0.3, "unit": "nM"},
      {"measurement": "susceptibility to TCDD-induced toxicity", "setting": "[2]", "value": "very susceptible"},
      {"measurement": "potency in induction of AHH and delta-ALA synthetase", "setting": "[3]", "value": "orders of magnitude more potent"},
      {"measurement": "equilibrium dissociation constant (Kd), earlier Scatchard analysis", "setting": "[4]; almost all Ah receptors studied", "value": "nM range"},
      {"measurement": "Kd, newer experimental approaches", "setting": "[4]", "value": "pM range"},
      {"measurement": "binding affinity to Ah receptor", "setting": "[4]", "value": "binds most strongly"},
      {"measurement": "saturation half-life of binding", "setting": "[5]", "value": "less than 1 hour"},
      {"measurement": "plasma membrane EGF receptor levels", "setting": "[6]", "value": "up-regulates plasma membrane EGF receptor levels"},
      {"measurement": "half-life", "setting": "[7]", "value": 5.8, "unit": "year"}
    ]}
  ]
}
